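Test compounds were applied to cells in 96-well plates for 48 hours at 5 doses. GI50 = concentration required for 50% inhibition of growth.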 Active and inactive are the calls of the source. Rule as the data show it: active = GI50 up to about 1.1 µM and inactive = higher.
How the values were obtained:
Experiment in all cases: NCI tumour cell line growth inhibition, 48 h
[1] = test system: OVCAR-8
[2] = test system: M14
[3] = test system: EKVX
[4] = test system: COLO 205
[5] = test system: SF-539
[6] = test system: CAKI-1
[7] = test system: OVCAR-5
[8] = test system: CCRF-CEM
[9] = test system: SK-OV-3
[10] = test system: HCT-116
[11] = test system: SK-MEL-2
[12] = test system: HCC 2998
[13] = test system: MOLT-4
[14] = test system: UACC-62
[15] = test system: OVCAR-4
[16] = test system: SNB-19
[17] = test system: HT-29
[18] = test system: PC-3
[19] = test system: MCF7
[20] = test system: MDA-N

SMILES: O=c1[nH]c(=O)n([C@H]2C[C@@H](CO)[C@@H](O)C2)cc1I
- GI50 [1]: > 100 µM (inactive)
- GI50 [2]: > 100 µM (inactive)
- GI50 [3]: > 100 µM (inactive)
- GI50 [4]: > 100 µM (inactive)
- GI50 [5]: > 100 µM (inactive)
- GI50 [6]: > 100 µM (inactive)
- GI50 [7]: > 100 µM (inactive)
- GI50 [8]: > 100 µM (inactive)
- GI50 [9]: > 100 µM (inactive)
- GI50 [10]: > 100 µM (inactive)
- GI50 [11]: > 100 µM (inactive)
- GI50 [12]: > 100 µM (inactive)
- GI50 [13]: > 100 µM (inactive)
- GI50 [14]: > 100 µM (inactive)
- GI50 [15]: > 100 µM (inactive)
- GI50 [16]: > 100 µM (inactive)
- GI50 [17]: > 100 µM (inactive)

SMILES: CC1(C)C2CCC1(CC(=O)O)C(Cl)C2 (stereo unspecified)
- GI50 [1]: > 100 µM (inactive)
- GI50 [2]: > 100 µM (inactive)
- GI50 [3]: > 100 µM (inactive)
- GI50 [4]: > 100 µM (inactive)
- GI50 [5]: > 100 µM (inactive)
- GI50 [6]: > 100 µM (inactive)
- GI50 [18]: > 100 µM (inactive)
- GI50 [7]: > 100 µM (inactive)
- GI50 [8]: > 100 µM (inactive)
- GI50 [9]: > 100 µM (inactive)
- GI50 [10]: > 100 µM (inactive)
- GI50 [11]: > 100 µM (inactive)
- GI50 [12]: > 100 µM (inactive)
- GI50 [13]: > 100 µM (inactive)
- GI50 [19]: > 100 µM (inactive)
- GI50 [14]: > 100 µM (inactive)
- GI50 [15]: > 100 µM (inactive)
- GI50 [16]: > 100 µM (inactive)
- GI50 [17]: > 100 µM (inactive)

SMILES: COc1ccc(NC(=O)CC/C(CC(=O)c2ccco2)=N/NC(N)=S)cc1
- GI50 [1]: > 100 µM (inactive)
- GI50 [2]: > 100 µM (inactive)
- GI50 [3]: > 100 µM (inactive)
- GI50 [4]: > 100 µM (inactive)
- GI50 [5]: > 100 µM (inactive)
- GI50 [6]: > 100 µM (inactive)
- GI50 [7]: > 100 µM (inactive)
- GI50 [8]: > 100 µM (inactive)
- GI50 [9]: > 100 µM (inactive)
- GI50 [10]: > 100 µM (inactive)
- GI50 [11]: > 100 µM (inactive)
- GI50 [12]: > 100 µM (inactive)
- GI50 [13]: > 100 µM (inactive)
- GI50 [14]: > 100 µM (inactive)
- GI50 [15]: > 100 µM (inactive)
- GI50 [16]: > 100 µM (inactive)
- GI50 [17]: > 100 µM (inactive)

SMILES: CCOc1ccc(/C(C=O)=C(\Cl)c2ccc(OC)cc2)cc1
- GI50 [1]: > 100 µM (inactive)
- GI50 [2]: > 73.1 µM (inactive)
- GI50 [3]: > 52 µM (inactive)
- GI50 [4]: > 51.5 µM (inactive)
- GI50 [5]: > 100 µM (inactive)
- GI50 [6]: > 40 µM (inactive)
- GI50 [7]: > 100 µM (inactive)
- GI50 [8]: 5.24 µM (inactive)
- GI50 [9]: > 100 µM (inactive)
- GI50 [10]: > 83.8 µM (inactive)
- GI50 [11]: > 100 µM (inactive)
- GI50 [12]: 82.6 µM (inactive)
- GI50 [13]: 5.48 µM (inactive)
- GI50 [19]: > 100 µM (inactive)
- GI50 [14]: > 51.9 µM (inactive)
- GI50 [15]: 9.82 µM (inactive)
- GI50 [16]: > 91.8 µM (inactive)
- GI50 [17]: > 39.4 µM (inactive)

SMILES: O=[N+]([O-])c1cccc(-c2ccc([C@H]3CC(c4ccc(Cl)cc4)=NN3)o2)c1
- GI50 [1]: 12.3 µM (inactive)
- GI50 [20]: 24 µM (inactive)
- GI50 [2]: 30.1 µM (inactive)
- GI50 [3]: 70 µM (inactive)
- GI50 [4]: > 100 µM (inactive)
- GI50 [6]: 26.1 µM (inactive)
- GI50 [7]: 31.7 µM (inactive)
- GI50 [8]: 1.43 µM (inactive)
- GI50 [9]: 28.8 µM (inactive)
- GI50 [10]: 15.2 µM (inactive)
- GI50 [12]: 16.6 µM (inactive)
- GI50 [13]: 0.891 µM (active)
- GI50 [19]: 16.3 µM (inactive)
- GI50 [14]: 16.3 µM (inactive)
- GI50 [15]: 23.2 µM (inactive)
- GI50 [16]: 38.4 µM (inactive)
- GI50 [17]: 21.3 µM (inactive)

SMILES: CCOC(=O)Nc1ccc2c(c1)N(C(=O)CCN(CC)CC)c1ccccc1S2 [ETHACIZINE]
- GI50 [1]: 25 µM (inactive)
- GI50 [2]: 22.9 µM (inactive)
- GI50 [3]: > 35.9 µM (inactive)
- GI50 [4]: 20.5 µM (inactive)
- GI50 [5]: 21.1 µM (inactive)
- GI50 [6]: 36.4 µM (inactive)
- GI50 [18]: 31.4 µM (inactive)
- GI50 [7]: 57.1 µM (inactive)
- GI50 [8]: 34.3 µM (inactive)
- GI50 [9]: 35 µM (inactive)
- GI50 [10]: 17.6 µM (inactive)
- GI50 [11]: 22 µM (inactive)
- GI50 [12]: 17.3 µM (inactive)
- GI50 [13]: 22.9 µM (inactive)
- GI50 [19]: 25.3 µM (inactive)
- GI50 [14]: 21.5 µM (inactive)
- GI50 [15]: 43.6 µM (inactive)
- GI50 [16]: 47 µM (inactive)
- GI50 [17]: 17.3 µM (inactive)

SMILES: CCOC(=O)C1CC(=O)C=C2CCCCC21 (stereo unspecified)
- GI50 [1]: > 100 µM (inactive)
- GI50 [2]: > 100 µM (inactive)
- GI50 [3]: > 100 µM (inactive)
- GI50 [4]: > 100 µM (inactive)
- GI50 [5]: > 100 µM (inactive)
- GI50 [6]: > 100 µM (inactive)
- GI50 [7]: > 100 µM (inactive)
- GI50 [8]: > 100 µM (inactive)
- GI50 [9]: > 100 µM (inactive)
- GI50 [10]: > 100 µM (inactive)
- GI50 [11]: > 100 µM (inactive)
- GI50 [12]: > 100 µM (inactive)
- GI50 [13]: > 100 µM (inactive)
- GI50 [14]: > 100 µM (inactive)
- GI50 [15]: > 100 µM (inactive)
- GI50 [16]: > 100 µM (inactive)
- GI50 [17]: > 100 µM (inactive)

SMILES: O=C1NC(Cc2ccc(O)cc2)C(=O)N2CCCC12 (stereo unspecified)
- GI50 [1]: > 100 µM (inactive)
- GI50 [2]: > 100 µM (inactive)
- GI50 [3]: > 100 µM (inactive)
- GI50 [4]: > 100 µM (inactive)
- GI50 [5]: > 100 µM (inactive)
- GI50 [6]: > 100 µM (inactive)
- GI50 [7]: > 100 µM (inactive)
- GI50 [8]: > 100 µM (inactive)
- GI50 [9]: > 100 µM (inactive)
- GI50 [10]: > 100 µM (inactive)
- GI50 [11]: > 100 µM (inactive)
- GI50 [12]: > 100 µM (inactive)
- GI50 [13]: > 100 µM (inactive)
- GI50 [14]: > 100 µM (inactive)
- GI50 [15]: > 100 µM (inactive)
- GI50 [16]: > 100 µM (inactive)
- GI50 [17]: > 100 µM (inactive)

Reference: ChEMBL document CHEMBL1201862, “PubChem BioAssay data set” (2004)
